In patent US9409952B2, “Peptide-compound cyclization method” (Chugai Seiyaku Kabushiki Kaisha, priority 2011, dated 2016):
Where two headings read alike, the source gives them in different places. Starred links: 1 amine or outer side, 2 acyl side, 3 side chain; linkers in the order of their positions; H or OH if unused. Positions of bridges follow the written chain, without caps; N, C: chain ends. Non-standard residues stand in square brackets, D forms with d. Residues, ends and D or L forms follow the SMILES beside them. *: point of attachment. Phe(3-(CH2)4CO) = O=C([C@H](Cc1cccc(CCCCC(=O)[*:3])c1)N[*:1])[*:2]; NMeF = CN[C@@H](Cc1ccccc1)C(=O)O; NMeI = CC[C@H](C)[C@H](NC)C(=O)O; AllylGly = C=CC[C@H](N)C(=O)O; NMeL = CN[C@@H](CC(C)C)C(=O)O; Ala(CN) = N#CC[C@H](N)C(=O)O; NMeV = CN[C@H](C(=O)O)C(C)C; NMeA = CN[C@@H](C)C(=O)O; Piperidide = C1CCN(*)CC1; Aze = O=C(O)[C@@H]1CCN1; Sar = CNCC(=O)O; tBu = CC(C)(C)*

Test: Metabolic stability in human hepatic microsome
Type: in vitro ADME
Conditions: for microsomal CLint at 1 uM: microsomes
[1] = pH 7.4, human hepatic microsome, NADPH(+), read-out: CL NADPH(+)

| SMILES | microsomal CLint at 1 uM [1] [µL/min/mg] | other results |
| --- | --- | --- |
| CC(C)C[C@@H]1NC(=O)[C@H](CC(C)C)N(C)C(=O)[C@H](C)N(C)C(=O)[C@@H](C(C)C)NC(=O)C[C@@H](C(=O)N2CCCCC2)NC(=O)[C@H]([C@@H](C)O)NC(=O)[C@H](Cc2ccccc2)N(C)C(=O)[C@H](C)N(C)C(=O)[C@H](CC(C)C)N(C)C(=O)[C@H](CC#N)NC(=O)[C@H](Cc2ccccc2)N(C)C1=O [DP-630] ([dV][NMeA][NMeL]L[NMeF][Ala(CN)][NMeL][NMeA][NMeF]TD-Piperidide; lactam N-11) | 34 |  |
| CC[C@H](C)[C@H]1C(=O)N[C@@H](Cc2ccccc2)C(=O)N(C)[C@@H](Cc2ccccc2)C(=O)N[C@@H]([C@@H](C)O)C(=O)N2CCC[C@H]2C(=O)N[C@@H](CC(C)C)C(=O)N[C@H](C(=O)N2CCCCC2)CC(=O)N[C@@H](C)C(=O)NCC(=O)N(C)[C@@H](C(C)C)C(=O)N(C)[C@@H](CC(C)C)C(=O)N[C@@H](C)C(=O)N1C [DP-26] (AG[NMeV][NMeL]A[NMeI]F[NMeF]TPLD-Piperidide; lactam N-12) |  | microsomal CLint at 1 uM (human, pH 7.4, CL NADPH(+)): 62 µL/min/mg |
| C=CC[C@@H]1NC(=O)[C@H](Cc2ccccc2)N(C)C(=O)[C@H]([C@@H](C)O)NC(=O)[C@H](CC(C)C)N(C)C(=O)[C@H](Cc2ccccc2)NC(=O)[C@H](C)NC(=O)C[C@@H](C(=O)N(C)[C@@H](Cc2ccccc2)C(=O)N[C@@H](C)C(=O)N2CCCCC2)NC(=O)[C@H](CC(C)C)NC(=O)[C@H](CC(C)C)N(C)C(=O)[C@H](C)N(C)C1=O [DP-612] (AF[NMeL]T[NMeF][AllylGly][NMeA][NMeL]LD[NMeF]A-Piperidide; lactam N-10) | 155 |  |
| CC(C)C[C@@H]1NC(=O)[C@H](CC(C)C)NC(=O)[C@H](C)N(C)C(=O)C[C@@H](C(=O)N2CCCCC2)NC(=O)[C@H](C(C)C)N(C)C(=O)[C@H](CC(C)C)NC(=O)[C@H](Cc2ccccc2)NC(=O)[C@H]([C@@H](C)O)NC(=O)[C@@H]2CCN2C(=O)[C@H](CC(C)C)NC(=O)[C@H](C)NC1=O [DP-548] ([NMeA]LLAL[Aze]TFL[NMeV]D-Piperidide; lactam N-11) | 16 |  |
| CC(C)C[C@@H]1NC(=O)[C@H](CC(C)C)N(C)C(=O)[C@H](C)N(C)C(=O)[C@H](Cc2ccccc2)NC(=O)C[C@@H](C(=O)N2CCCCC2)NC(=O)[C@H]([C@@H](C)O)NC(=O)[C@H](C(C)C)N(C)C(=O)CN(C)C(=O)[C@H](CC(C)C)N(C)C(=O)[C@@H](C(C)C)NC(=O)[C@H](Cc2ccccc2)N(C)C1=O [DP-616] (F[NMeA][NMeL]L[NMeF][dV][NMeL][Sar][NMeV]TD-Piperidide; lactam N-11) | 69 |  |
| CC[C@H](C)[C@@H]1NC(=O)[C@H](CC(C)C)N(C)C(=O)CN(C)C(=O)[C@H](Cc2ccccc2)NC(=O)[C@H](C(C)C)N(C)C(=O)[C@H](C)N(C)C(=O)[C@H]([C@@H](C)O)NC(=O)[C@H](C)N(C)C(=O)C[C@@H](C(=O)N2CCCCC2)NC(=O)[C@H](C)NC1=O [DP-675] ([NMeA]T[NMeA][NMeV]F[Sar][NMeL]IAD-Piperidide; lactam N-10) | 22 |  |
| CC[C@H](C)[C@H]1C(=O)N[C@H](C(=O)N2CCCCC2)CC(=O)N[C@@H](C)C(=O)N[C@@H]([C@@H](C)O)C(=O)N(C)[C@@H](Cc2ccccc2)C(=O)N[C@@H](CC(C)C)C(=O)N2CCC[C@H]2C(=O)N(C)[C@@H](C(C)C)C(=O)N[C@@H](Cc2ccccc2)C(=O)N(C)CC(=O)N(C)[C@@H](CC(C)C)C(=O)N[C@@H](C)C(=O)N1C [DP-27] (AT[NMeF]LP[NMeV]F[Sar][NMeL]A[NMeI]D-Piperidide; lactam N-12) | 31 |  |
| CC[C@H](C)[C@H]1C(=O)N[C@@H](COC(C)(C)C)C(=O)N(C)[C@@H](Cc2ccccc2)C(=O)N(C)[C@@H](C(C)C)C(=O)N[C@H](C(=O)N2CCCCC2)Cc2cccc(c2)CCCCC(=O)N(C)[C@@H](Cc2ccccc2)C(=O)N[C@@H](CC(C)C)C(=O)N(C)[C@@H](CC(C)C)C(=O)N[C@@H]([C@@H](C)O)C(=O)N(C)CC(=O)N1C [DP-853] ([NMeF]L[NMeL]T[Sar][NMeI]S(tBu)[NMeF][NMeV][Phe(3-(CH2)4CO)]-Piperidide; lactam N-10) | 120 |  |
| CC[C@H](C)[C@H](NC(=O)[C@H](CC(C)C)NC(=O)[C@H](CC(C)C)N(C)C(=O)[C@@H]1CC(=O)N[C@H](C(C)C)C(=O)N[C@@H](CC(C)C)C(=O)N(C)[C@@H](CC(C)C)C(=O)N[C@@H]([C@@H](C)O)C(=O)N[C@@H](C(C)C)C(=O)N(C)[C@@H](CC(C)C)C(=O)N(C)[C@@H](Cc2ccccc2)C(=O)N1)C(=O)N1CCCCC1 [DP-933] ([dV]L[NMeL]TV[NMeL][NMeF]D[NMeL]LI-Piperidide; lactam N-8) | 43 |  |
| C=C1CCC(=O)N[C@@H](CC(C)C)C(=O)N[C@@H](Cc2ccccc2)C(=O)N[C@@H]([C@@H](C)O)C(=O)N[C@@H](CC(C)C)C(=O)N(C)[C@@H](C)C(=O)N[C@@H](Cc2ccccc2)C(=O)NCC(=O)N[C@@H](C(C)C)C(=O)N[C@@H](CC(C)C)C(=O)N[C@@H](C)C(=O)N(C)[C@@H](CC(C)C)C(=O)N[C@H](C(=O)N2CCCCC2)Cc2ccc1cc2 [DP-898] | 21 |  |
| CC[C@H](C)[C@@H]1NC(=O)[C@H](Cc2ccccc2)N(C)C(=O)[C@H](Cc2ccccc2)NC(=O)[C@H](CC(C)C)N(C)C(=O)[C@H](CC(C)C)NC(=O)[C@H](C)NC(=O)C[C@@H](C(=O)N2CCCCC2)NC(=O)[C@H]([C@@H](C)O)NC(=O)[C@H](C)N(C)C1=O [DP-86] (AL[NMeL]F[NMeF]I[NMeA]TD-Piperidide; lactam N-9) | 237 |  |
| CC[C@H](C)[C@@H]1NC(=O)[C@H](Cc2ccccc2)NC(=O)[C@H](C)NC(=O)C[C@@H](C(=O)N2CCCCC2)NC(=O)[C@H](CC(C)C)NC(=O)[C@H](CC(C)C)NC(=O)[C@H](C(C)C)NC(=O)[C@H](C)N(C)C(=O)[C@H](Cc2ccccc2)NC(=O)CNC(=O)[C@H]([C@@H](C)O)NC(=O)[C@H](CC(C)C)NC(=O)[C@@H]2CCCN2C1=O [DP-19] (AFIPLTGF[NMeA]VLLD-Piperidide; lactam N-13) |  | microsomal CLint at 1 uM (human, pH 7.4, CL NADPH(+)): 80 µL/min/mg |
| CC[C@H](C)[C@H](NC(=O)[C@H](CC(C)C)N(C)C(=O)[C@@H](NC(=O)[C@@H]1CC(=O)N[C@@H](C)C(=O)N[C@@H](CC(C)C)C(=O)N[C@@H]([C@@H](C)O)C(=O)N(C)[C@@H](Cc2ccccc2)C(=O)N[C@@H](Cc2ccccc2)C(=O)N(C)[C@@H](C)C(=O)N1)C(C)C)C(=O)N1CCCCC1 [DP-46] (ALT[NMeF]F[NMeA]DV[NMeL]I-Piperidide; lactam N-7) |  | microsomal CLint at 1 uM (human, pH 7.4, CL NADPH(+)): 249 µL/min/mg |
| CC(C)C[C@H]1C(=O)N[C@@H](COC(C)(C)C)C(=O)N[C@H](C(=O)N2CCCCC2)CCC(=O)N(C)[C@@H](C)C(=O)N(C)[C@@H](C)C(=O)N(C)[C@@H](Cc2ccccc2)C(=O)N(C)[C@@H](CC(C)C)C(=O)N[C@@H]([C@@H](C)O)C(=O)N(C)CC(=O)N1C [Compound P-122, MeAla-MeAla-MePhe-MeLeu-Thr-MeGly-MeLeu-Ser(tBu)-Glu-piperidine] ([NMeA][NMeA][NMeF][NMeL]T[Sar][NMeL]S(tBu)E-Piperidide; lactam N-9) |  | Hepatic microsome CLhint (Human) In the absence of NADPH: 1 ul/min/mg Protein; microsomal CLint at 1 uM (human, pH 7.4, Hepatic microsome CLhint (Human) In the presence of NADPH): 11 µL/min/mg |
| CC[C@H](C)[C@H](NC(=O)[C@H](C)NC(=O)CNC(=O)[C@@H]1CC(=O)N[C@@H](C)C(=O)N[C@@H](CC(C)C)C(=O)N[C@@H]([C@@H](C)O)C(=O)N(C)[C@@H](CC(C)C)C(=O)N[C@@H](Cc2ccccc2)C(=O)N2CCC[C@H]2C(=O)N[C@@H](C(C)C)C(=O)N[C@@H](Cc2ccccc2)C(=O)N(C)[C@@H](CC(C)C)C(=O)N1)C(=O)N1CCCCC1 [DP-42] (ALT[NMeL]FPVF[NMeL]DGAI-Piperidide; lactam N-10) |  | microsomal CLint at 1 uM (human, pH 7.4, CL NADPH(+)): 17 µL/min/mg |
